Test results from patent publication US20080008716A1, “Combined Pharmaceutical Composition Comprising an Anti-4-1BB Monoclonal Antibody and Chemotherapeutic Anti-Cancer Agent for Preventing and Treating Cancer Disease” (ULSAN INDUSTRIAL EDUCATION FOUNDATION, priority 2006, published 2008).

Assays:
B16F10 melanoma cell [1] = assay: Anticancer effect of anti-4-1BB antibody combined with other chemotherapeutic anti-cancer agents; tumor size and survival; conditions: for anticancer effect / activity / growth rate of cancer tissue / survival rate of mice: given simultaneously with B16F10, FIG. 3; for anticancer effect / activity / survival rate of mice: same doses as E16; for growth rate of cancer tissue: chemotherapeutic once (Cis 50 or 200 μg, 5-FU 800 or 10,000 μg, irinotecan 2 mg, paclitaxel 200 or 500 μg i.p.; Doxo 200 or 400 μg i.v.), antibody 100 μg, vs rat IgG control
Experimental: 4×10^5 cells of B16F10 melanoma cell were injected to the back of C57BL/6 mice to occur tumor in a similar method in
At the same time, 100 μg of anti-4-1BB monoclonal antibody and/or 50 or 200 μg of cisplatin, 800 or 10,000 μg of 5-fluorouracil (5-FU), 2 mg of irinotecan and 200 or 500 μg of paclitaxel (Taxel) were intraperitoneally injected into the mice once respectively and the anti-4-1BB monoclonal antibody was further injected into the peritoneal cavity at 6 times per every 5 days. 100 μg of anti-4-1BB monoclonal antibody and/or 200 or 400 μg of Doxorubicin (Doxo) were injected into the vein and an anti-4-1BB monoclonal antibody was injected into the peritoneal cavity at 6 times per every 5 days. The size of tumor and the survival rates of the mice were analyzed during the test period (See FIG. 3).

IFN-γ = IFN-γ expression of CD4 and CD8 T cells of draining lymph node (intracellular staining, FACScan); conditions: 17th day after treating, FIG. 5a
Experimental: At 1st, 2nd, 4th, 8th, 12th, 16th, 20th, 24th days after the injection, the closest draining lymph node (inguinal lymph node) to tumor tissue in each group was isolated from the mice to determine the expression of IFN-γ (Kim Y H et al., Cell. Immunol., 238(2), pp 76˜86, 2005). To stain the IFN-γ cytokine in cell, lymph-node cell suspension was prepared from each group and the separated cells were cultured in culture medium containing Brefeldin A (BD Bioscience, USA) for 6 hours after treating with 50 ng/ml of PMA and 500 mg/ml of Ionomycin (Sigma, USA). […] The cells was then stained with anti-IFN-γ-PE (eBioscience, USA) using by Cytofix/cytoperm (BD Pharmingen, USA) with the manual of manufacturing company and analyzed with FACScan (BD Bioscience, USA).
3 mg of CTX and/or 100 μg of anti-4-1BB antibody were treated to the tumor-injected mice once and the cell was separated from the experimental group at 17th day when the cell started to launch the repopulation after treating with CTX and at 22nd day when the repopulation of the cell in lymph node was enough and the expression of IFN-γ was analyzed with FACScan (BD Bioscience, USA) with the method disclosed in Example 3.

[2] = tested on: draining lymph node cell (CD4 and CD8 T cells); assay: Lymphocyte repopulation: cell number, CD4 and CD8 T cells in draining lymph node of tumor-bearing mice; assay type: in vivo, C57BL/6 mice
Experimental: The ratio of immune cell in each sample was analyzed with FACScan (BD Bioscience, USA), and the number of infiltrated CD4+ CD8+ T cells in tumor tissue was calculated by following Math FIG. 1
Accordingly, it was anticipated that the sustainable treatment effect of cancer by the combined treatment with CTX and anti-4-1BB antibody would be involved in the repopulation of T cell showing anticancer activity.

B16F10 melanoma cell [3] = tested on: B16F10 melanoma cell
Experimental: (§1) C57BL/6 male mice (Harlan Laboratories, Indianapolis, Ind.) were used as an experiment animal. The mice had been bred allowing freely accessible to water and feed and maintaining the temperature to 21±2° C. in 12 hours of light/dark cycle before use in test. B16F10(ATCC CRL-6475, USA), a melanoma cell line of mouse, was cultured in DMEM medium (Dulbeco's modified eagle's medium, GIBCO BRL, USA) containing 10% FBS (Fetal Bovine Serum; Gibco BRL, NY), 2 mM L-glutamine, 100 U/l penicillin (Invitrogen, USA) and 100 μg/ml streptomycin (Invitrogen, USA).
(§2) 4×10^5 cells of B16F10 melanoma cell were subcutaneously injected to the back of mice to occur tumor. At the same time, 100 μg of anti-4-1BB monoclonal antibody and 3 mg of CTX were intraperitoneally injected into the mice and the antibody was further injected thereto at the interval of five days. […] The size and survival rate of the mice were periodically determined.
3 mg of CTX were injected into the peritoneal cavity of the mice at 5th days and 10th days after injecting cancer cells, anti 4-1BB antibody was injected into the peritoneal cavity at 6 times per every 5 days from 5th days or 10th days after injecting cancer cells.

B16F10 melanoma cell [4] = tested on: B16F10 melanoma cell; remark: listed apart in the source
Experimental: as §1, §2
At the same time, 100 μg of anti-4-1BB monoclonal antibody and 3 mg of CTX were intraperitoneally injected to the mice once and anti-4-1BB monoclonal antibody was injected into the peritoneal cavity at 6 times per every 5 days. The tumor size and the survival rates of mice were analyzed during the test period (See FIG. 1)

For `CCc1c2c(nc3ccc(OC(=O)N4CCC(N5CCCCC5)CC4)cc13)-c1cc3c(c(=O)n1C2)COC(=O)[C@]3(O)CC` [Irinotecan, irinotecan], the “time within which most of mice died” value (B16F10 melanoma cell [1]; 2 mg irinotecan i.p. once) was no more than 30 days and the “anticancer effect / activity” value (B16F10 melanoma cell [1]) was “strong anticancer effect in a dose dependent manner”.
In the case of `O=c1[nH]cc(F)c(=O)[nH]1` [5-FU, 5-fluorouracil], the “growth rate of cancer tissue” value (B16F10 melanoma cell [1]) is reported as “decreased in a dose dependent manner” and the “survival rate of mice” value (B16F10 melanoma cell [1]) is reported as “increased”.
For `N.N.[Cl][Pt][Cl]` [cisplatin], the “growth rate of cancer tissue” value (B16F10 melanoma cell [1]) was “decreased in a dose dependent manner” and the “survival rate of mice” value (B16F10 melanoma cell [1]) was “partly increased”.
With `COc1cccc2c1C(=O)c1c(O)c3c(c(O)c1C2=O)C[C@@](O)(C(=O)CO)C[C@@H]3O[C@H]1C[C@H](N)[C@H](O)[C@H](C)O1` [Doxorubicin] the “growth rate of cancer tissue” value (B16F10 melanoma cell [1]) was “had been decreased”, the “anticancer effect / activity” value (B16F10 melanoma cell [1]) was “strong anticancer effect in a dose dependent manner” and the “survival rate of mice” value (B16F10 melanoma cell [1]) was “remarkably increased”.
With `CC(=O)O[C@H]1C(=O)[C@@]2(C)[C@H]([C@H](OC(=O)c3ccccc3)[C@]3(O)C[C@H](OC(=O)[C@H](O)[C@@H](NC(=O)c4ccccc4)c4ccccc4)C(C)=C1C3(C)C)[C@]1(OC(C)=O)CO[C@@H]1C[C@@H]2O` [Paclitaxel, paclitaxel] the “growth rate of cancer tissue” value (B16F10 melanoma cell [1]) was “slightly slowed”, the “anticancer effect / activity” value (B16F10 melanoma cell [1]) was “a little lower inhibiting effect of the growth of B16-F10 melanoma comparing with other anticancer agents” and the “survival rate of mice” value (B16F10 melanoma cell [1]) was “slightly increased”.
With `O=P1(N(CCCl)CCCl)NCCCO1` (stereo not drawn) [CTX, cyclophosphamide] the “IFN-γ expression of T cell” value (IFN-γ) was 2 to 3%, the “number of cell in lymph node” value ([2]; B16F10-bearing mice, FIG. 4a) was “temporarily been decreased” and the “time after injecting cancer cell at which number of cell in lymph node increased” value ([2]; B16F10-bearing mice, FIG. 4a) was “around 16 days”. For the same compound, the “level of lymph node cell number comparing with mice treated with rat IgG or anti-4-1BB” value ([2]; after recovery of the cell number) was “less than ½ to ⅕”, the “day after which number of CD4 and CD8 T cell was recovered to normal range” value ([2]; draining lymph node) was greater than 14 days and the “number of CD4 and CD8 T cell” value ([2]; draining lymph node, FIG. 4b, 4c) was “decreased”. For the same compound, the anti-cancer activity (B16F10 melanoma cell [3]; treatment at 5th day after injecting cancer cell) was “did not show any effect on the anti-cancer activity”, the growth of tumor (B16F10 melanoma cell [3]; treatment from 10th day after injecting cancer cells, FIG. 2c) was “did not show any change” and the survival of mice (B16F10 melanoma cell [3]; treatment from 10th day after injecting cancer cells, FIG. 2d) was “did not show any change”. The “growing rate of tumor / growth of cancer” value (B16F10 melanoma cell [4]; treatment at the same time as 4×10^5 B16F10 cells, 100 μg antibody i.p. 6 times per every 5 days, 3 mg CTX i.p. once, FIG. 1) was “potent inhibiting effect on the growth of cancer”, the “day after injecting cancer cells until which tumor size was not increased” value (B16F10 melanoma cell [4]; treatment at the same time as B16F10 injection) was 30 days and the “survival of mice extended for” value (B16F10 melanoma cell [4]; treatment at the same time as B16F10 injection, versus mice injected with only B16F10 (all died around 30th day)) was 20 days.
